Measured values from patent US20060069132A1, “Azolecarboxamide herbicides” (priority 2004, published 2006).

What was measured:
Test in all cases: Test E pre-/postemergence herbicide test
[1] = tested on: tropical spiderwort; type: in vivo, Commelina benghalensis
Procedure, shortened: (§1)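 Visual 0–100 rating vs untreated controls (0 = no effect, 100 = complete control), 12–14 d after treatment in greenhouse. Pre- and postemergence (2–18 cm, 1- to 4-leaf) applications; compounds in non-phytotoxic solvent with surfactant.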

[2] = tested on: downy bromegrass; type: in vivo, Bromus tectorum
Procedure, shortened: as §1

[3] = tested on: quackgrass; type: in vivo, Elytrigia repens
Procedure, shortened: as §1

[4] = tested on: Russian thistle; type: in vivo, Salsola kali; conditions: scale 0 to 100
Procedure, shortened: as §1

[5] = tested on: hairy beggarticks; type: in vivo, Bidens radiata; conditions: Preemergence
Source text: Seeds of plant species selected from bipinnate beggarticks (Bidens bipinnata L.), hairy beggarticks (Bidens radiata Thuill.), bermudagrass (Cynodon dactylon (L.) Pers.), Surinam grass (Urochloa decumbens (Staph) R. D. Webster, previously named Brachiaria decumbens Stapf), large crabgrass (Digitaria sanguinalis (L.) Scop.), green foxtail (Setaria viridis (L.) P. Beauv.), goosegrass (Eleusine indica (L.) Gaertn.), johnsongrass (Sorghum halepense (L.) Pers.), kochia (Kochia scoparia (L.) Schrad.), pitted morningglory (Ipomoea lacunosa L.), purple nutsedge (Cyperus rotundus L.), common ragweed (Ambrosia elatior L.), mustard (Brassica nigra (L.) W. D. J. Koch), guineagrass (Panicum maximum Jacq.), dallisgrass (Paspalum dilatatum Poir.), barnyardgrass (Echinochloa crus-galli (L). P. Beauv.), southern sandbur (Cenchrus echinatus L.), common sowthistle (Sonchus oleraceous L.), prickly sida (Sida spinosa L.), Italian ryegrass (Lolium multiflorum Lam.), common purslane (Portulaca oleracea L.), broadleaf signalgrass (Brachiaria platyphylla (Griseb.) Nash), common groundsel (Senecio vulgaris L.), common chickweed (Stellaria media (L.) Vill/Cyr.), tropical spiderwort (Commelina benghalensis L.), annual bluegrass (Poa annua L.), downy bromegrass (Bromus tectorum L.), itchgrass (Rottboellia cochinchinensis (L.) L.f.), quackgrass (Elytrigia repens (L.) Nevski), Canada horseweed (Erigeron Canadensis L.), field bindweed (Convolvulus arvensis L.), spotted spurge (Euphorbia maculata L.), common mallow (Malva sylvestris (=s silvestris) L.), and Russian thistle (Salsola kali L. ssp. Ruthenica (Iljin) Soo) were planted and treated preemergence with test chemicals formulated in a non-phytotoxic solvent mixture which included a surfactant.
At the same time, plants selected from these weed species were treated with postemergence applications of some of the test chemicals formulated in the same manner. Plants ranged in height from 2 to 18 cm (1- to 4-leaf stage) for postemergence treatments. Treated plants and controls were maintained in a greenhouse for 12 to 14 days, after which time all species were compared to controls and visually evaluated. Plant response ratings, summarized in Table E, are based on a scale of 0 to 100 where 0 is no effect and 100 is complete control. A dash (-) response means no test result.

[6] = tested on: barnyardgrass; type: in vivo, Echinochloa crus-galli
Procedure, shortened: as §1

[7] = tested on: common purslane; type: in vivo, Portulaca oleracea; conditions: scale 0 to 100
Procedure, shortened: as §1

[8] = tested on: itchgrass; type: in vivo, Rottboellia cochinchinensis
Procedure, shortened: as §1

[9] = tested on: common groundsel; type: in vivo, Senecio vulgaris; conditions: scale 0 to 100
Procedure, shortened: as §1

[10] = tested on: field bindweed; type: in vivo, Convolvulus arvensis
Procedure, shortened: as §1

[11] = Postemergence, 500 g ai/ha, scale 0 to 100
[12] = Postemergence, 250 g ai/ha, scale 0 to 100
[13] = Preemergence, 125 g ai/ha, scale 0 to 100
[14] = Preemergence, 250 g ai/ha, scale 0 (no effect) to 100 (complete control)
[15] = Preemergence, 500 g ai/ha, scale 0 (no effect) to 100 (complete control)
[16] = postemergence, 125 g ai/ha, scale 0 to 100
[17] = postemergence, 62 g ai/ha, scale 0 to 100
[18] = Preemergence, 62 g ai/ha, scale 0 to 100

CCn1nc(C2(C)CC2)cc1C(=O)Nc1cc(C(=O)N(C)C)ccc1F [Compound 299]
95: Plant response rating, Spiderwort [1, 14] | Plant response rating, Bromegrass, Downy [2, 11] | Plant response rating, Quackgrass [3, 14] | Plant response rating, Barnyardgrass [6, 14] | Plant response rating, Bindweed, Field [10, 11] | Plant response rating, Bindweed, Field [10, 14]
75: Plant response rating, Quackgrass [3, 16] | Plant response rating, Purslane ([7]; postemergence, 125 g ai/ha) | Plant response rating, Itchgrass [8, 12] | Plant response rating, Itchgrass [8, 13]
80: Plant response rating, Spiderwort [1, 12] | Plant response rating, Spiderwort [1, 16] | Plant response rating, Bromegrass, Downy [2, 12] | Plant response rating, Quackgrass [3, 18] | Plant response rating, Quackgrass [3, 13] | Plant response rating, Barnyardgrass [6, 11] | Plant response rating, Purslane ([7]; Postemergence, 250 g ai/ha) | Plant response rating, Itchgrass [8, 11] | Plant response rating, Bindweed, Field [10, 12]
70: Plant response rating, Bromegrass, Downy [2, 16] | Plant response rating, Thistle ([4]; Postemergence, 250 g ai/ha) | Plant response rating, Barnyardgrass [6, 12] | Plant response rating, Barnyardgrass [6, 16] | Plant response rating, Purslane ([7]; postemergence, 62 g ai/ha) | Plant response rating, Itchgrass [8, 16] | Plant response rating, Groundsel ([9]; postemergence, 125 g ai/ha) | Plant response rating, Bindweed, Field [10, 16]
85: Plant response rating, Spiderwort [1, 13] | Plant response rating, Quackgrass [3, 12] | Plant response rating, Barnyardgrass [6, 13]
20: Plant response rating, Quackgrass [3, 17]
90: Plant response rating, Spiderwort [1, 11] | Plant response rating, Thistle ([4]; Postemergence, 500 g ai/ha) | Plant response rating, Itchgrass [8, 14]
30: Plant response rating, Itchgrass [8, 17] | Plant response rating, Bindweed, Field [10, 17]
100: Plant response rating, Spiderwort [1, 15] | Plant response rating, Bromegrass, Downy [2, 14] | Plant response rating, Bromegrass, Downy [2, 15] | Plant response rating, Quackgrass [3, 11] | Plant response rating, Quackgrass [3, 15] | Plant response rating, Thistle ([4]; Preemergence, 125 g ai/ha) | Plant response rating, Beggarticks, Hairy ([5]; 125 g ai/ha, scale 0 to 100) | Plant response rating, Beggarticks, Hairy ([5]; 250 g ai/ha, scale 0 (no effect) to 100 (complete control)) | Plant response rating, Beggarticks, Hairy ([5]; 500 g ai/ha, scale 0 (no effect) to 100 (complete control)) | Plant response rating, Barnyardgrass [6, 15] | Plant response rating, Purslane ([7]; Postemergence, 500 g ai/ha) | Plant response rating, Itchgrass [8, 15] | Plant response rating, Groundsel ([9]; Postemergence, 250 g ai/ha) | Plant response rating, Bindweed, Field [10, 15]
60: Plant response rating, Barnyardgrass [6, 18] | Plant response rating, Itchgrass [8, 18] | Plant response rating, Bindweed, Field [10, 13]
40: Plant response rating, Barnyardgrass [6, 17]
10: Plant response rating, Spiderwort [1, 17] | Plant response rating, Bindweed, Field [10, 18]
50: Plant response rating, Bromegrass, Downy [2, 17] | Plant response rating, Beggarticks, Hairy ([5]; 62 g ai/ha, scale 0 to 100)
